According to patent US11523610B2, “Regulating plant growth using a diapocarotenoid” (King Abdullah University of Science and Technology, priority 2018, dated 2022):

Tests used:
[1] = tested on: Arabidopsis seedlings (anchor roots); assay: ANR formation under OH-Apo10′ and OH-Apo12′ treatment; type: in vivo; details: 10 μM, counted at 10 DAG
From the text: FIGS. 21A-D show a diapocarotenoid precursor (OH-Apo12′) is converted into anchorene in plants, according to one or more embodiments of the present disclosure. […] (B) is a histogram showing quantification of achorene in mock, OH-Apo10′, and OH-Apo12′ fed Arabidopsis seedlings. (C) is a histogram showing ANR emergence in mock, OH-Apo10′, and OH-Apo12′ fed seedlings. […] For B and C, two-tailed Student's t-test, **P<0.01, *** P<0.001; in B, n=4; in C data are presented as mean ±SD from 3 independent replicates; in B, 12-day-old seedlings were incubated with indicated chemicals for 6 hours and 20 μM OH-Apol10′ and OH-Apo12′ were used; and C, 10 μM OH-Apol ′ and OH-Apo12′ were used and the ANR No./plant was counted at 10 DAG. For the quantification of ANR formation under OH-Apo10′ and OH-Apo12′ treatment conditions, the sterilized Arabidopsis seeds were exposed to light for 24 hours first, and then plated to 1/2 MS plates with indicated chemicals; the plates were kept under darkness (22° C.) for another two days and then exposed to long day light conditions for another 7 days to count the ANR emergence.

[2] = LC-MS quantification of anchorene in Arabidopsis tissues; details: 12-day-old seedlings incubated 6 hours with 20 μM; compared to control and OH-APO10′
Description: About 30 mg (30-40 mg) of freeze-dried and ground Arabidopsis seedlings tissues were extracted using 1 mL of acetonitrile with anti-oxidant [0.1% butylated hydroxytoluene (BHT)] for 15 min in an ultrasonic bath (Branson® 5510EDTH, 25° C., 15 min), followed by centrifugation for 8 min at 13000 rpm at 4° C. The collected supernatant was dried using a concentrator (Labconco RapidVap® System). The extract was derivatized (SCHEME 3) with 50 μL of derivatization solution containing 5 mg/mL derivatization reagent (N^2,N^2,N^4,N^4-tetraethyl-6-hydrazineyl-1,3,5-triazine-2,4-diamine) (Chemspace) and 1% formic acid in methanol at 37° C. for 15 min. Then the sample solution was diluted to 150 μL with 1% formic acid in methanol and filtered by using 0.22 μm filter before LC-MS analysis.
The quantitative analysis of derivative anchorene were carried out on HPLC-Q-Trap MS/MS. Chromatographic separation was achieved on an Acquity UPLC CSH C18 column (50×2.1 mm; 1.7 μm; Waters) using a mobile phase consisting of water: acetonitrile (95:5, v:v, A) and pure acetonitrile (B), both containing 0.1% formic acid. A gradient was applied, starting with 10% B and increasing to 40% B over 5 min. Then 15% B was increased
within 10 min followed by an increase of 45% B over 2 min. And then 100% B was maintained for 10 min. To equilibrate the column before the next run, the mobile phase was adjusted back to 10% B in 1 min and this concentration was maintained for 8 min prior to the next sample injection. A flow rate of 0.15 mL/min and a column temperature of 40° C. were maintained throughout the run. The eluent of the column was introduced to the mass spectrometer using turbo spray ion source in positive mode. The injection volume was 10 μL. The conditions of the mass spectrometer were set as following: curtain gas: 30; ion spray voltage: 5 kV; temperature: 400° C.; ion source gas 1: 30; ion source gas 2: 40; declustering potential, 55; entrance potential: 10; collision energy: 25; collision cell exit potential: 10. […]

Structure (SMILES): CC(C=CC=O)=CC=CC=C(C)C=CC=C(C)C=CC1=C(C)CC(O)CC1(C)C (stereo not drawn) [OH-APO10′, reference compound]
- anchor roots formed compared to mock (ANR No./plant) [1]: not

Structure (SMILES): CC1=C(/C=C/C(C)=C/C=C/C(C)=C/C=C/C=C(\C)C=O)C(C)(C)CC(O)C1 (stereo not drawn) [OH-APO12′, all-trans-3-OH-β12′-carotenal]
- anchorene content of fed seedlings [2]: much more anchorene
- anchor roots formed compared to mock (ANR No./plant) [1]: formed more anchor routes
